Results taken from US20260200971A1, “METHODS FOR ISOLATING, DETECTING, AND QUANTIFYING INTERCELLULAR PROTEINS” (Fred Hutchinson Cancer Center, priority 2022, published 2026).

Legend:
Streptavidin = Streptavidin (Streptomyces avidinii, UniProt P22629); details: binding to streptavidin; cited from earlier work
MCF7:PIK3CA-WT cells = assay: CyQuant proliferation assay, alpelisib dose response, PIK3CA-WT cells; assay type: cell-based; details: estrogen deprived conditions, 5 days
Method: (§1) Dose response curves are shown for three different MCF7 sublines (MCF7:WS8, MCF7:PIK3CA-mutant, MCF7:PIK3CA-WT) in response to treatment with fulvestrant or alpelisib. Proliferation was determined by a CyQuant genomic DNA quantification. Individual points represent the mean of n=8 replicate wells. Curves represent the least-squares fit of the Hill equation. Error bands represent the 95% confidence interval of the fit, as determined using the gradient method.
(§2) The MCF7 cell line harbors two activating E545K mutant PIK3CA alleles. To evaluate the relationship between PIK3CA mutation, AREG expression, and drug resistance, the MCF7 parental line was compared to a previously published isogenic MCF7 line with a wildtype (WT) PIK3CA knock in, which has both mutant alleles corrected (see Beaver et al., Clin. Cancer Res. 19:5413-5422, 2013). […] Then, under estrogen deprived conditions, the growth of MCF7 PIK3CA mutant or MCF7:PIK3CA-WT cells was assessed over 5 days in the presence of varying doses of alpelisib (a PI3K inhibitor) (FIGS. 9B and 9C). Proliferation was quantified by an end-point genomic DNA quantification (CyQuant), and then the concentration-response curve was fit to a Hill equation to extract the IC50 and the asymptotic proliferation in the limit of infinite drug […].

MCF7:PIK3CA-mutant cells = assay: CyQuant proliferation assay, alpelisib dose response, PIK3CA mutant cells; assay type: cell-based; details: estrogen deprived conditions, 5 days
Method: as §1, §2

HCC70 spheroids [1] = assay: Streptavidin dot blot of lysates from labeled 3D cultures; assay type: cell-based; details: for streptavidin binding signal, hydrogels containing HCC70 cells versus cell-free EHS matrix: fully embedded EHS matrix hydrogel (7-10 mg/mL protein)
Method: To evaluate the extent to which the streptavidin signal produced was due to reactions with azide-labeled proteins, HCC70 breast cancer cell spheroids were cultured in 2% EHS matrix suspension culture with or without azidohomoalanine.
To assess the specificity of the labeling, streptavidin dot blots were performed with homogeneous lysates prepared from each of the labeling conditions. Additionally, unlabeled lysate was included to account for non-specific binding of the streptavidin reagent, itself. […] As a non-specific reaction control, the same labeling conditions were evaluated in “empty” EHS matrix hydrogels, which contained no cells. […] After labeling and washing the samples, homogeneous lysates of all conditions were prepared.
Generation of fully embedded 3D HCC70 cultures. HCC70 spheroids were first seeded in suspension in 2% EHS matrix (following one passage in 3D suspension culture). After allowing spheroids to form for 24 hours, the spheroids were pelleted, the supernatant was aspirated, and the spheroids were directly resuspended in ice-cold EHS matrix (undiluted from the manufacturer's preparation at a typical concentration of 7-10 mg/mL). Resuspension was achieved by slow pipetting up and down forty times on ice with pipette tips that were pre-chilled at −20° C. Next, EHS matrix “domes” were created by pipetting thirty microliters of the EHS matrix/spheroid suspension directly into the center of the well of a 24-well plate with a No. 1.5 polymer coverglass bottom. The plate was flipped upside down to prevent spheroids from settling onto the coverglass, and the plate was incubated at 37° C., 5% CO2, for 1 hour to allow the EHS matrix to form an elastic hydrogel. The domes were then covered with complete cell culture media (1 mL per well) and cultured at 37° C., 5% CO2.
Streptavidin dot blot analysis. Spheroid lysates were prepared as described above. […]
MCF7:WS8 cells [2] = assay: Click labeling and PEA (Olink Explore 3072) differential intercellular protein expression; assay type: cell-based
Method: PEA was used to quantify protein abundance in MCF7:WS8 cells treated with estradiol (1 nM) and fulvestrant concomitantly or with estradiol (1 nM) alone. Proteins from cells treated with or without fulvestrant were ranked by a log 2-fold change in abundance and by a false-discovery rate and identified.
The eluted protein fraction was then subjected to proximity extension assay-based quantification using the Olink® Explore protocol to quantify the abundance of proteins in a 3072-plex panel.
Intercellular protein discovery by the proximity extension assay and NPX normalized protein abundance calculation. Proteins were measured using the Olink® Explore 3072 panel (Olink Proteomics AB, Uppsala, Sweden) according to the manufacturer's instructions. For each experimental replicate, eighty microliters of elution solution (representing labeled proteins from eight hundred thousand cells), was used directly for the Olink Explore protocol.
MCF7:WS8 cells [3] = assay: CyQuant genomic DNA proliferation assay, fulvestrant dose response; assay type: cell-based; details: estradiol 1 nM; for IC50: Hill equation fit
Method: as §1
Given that AREG induction by estradiol supports estradiol-dependent proliferation, the expectation was that constitutive overexpression of AREG would confer resistance to drugs that inhibit estrogen signaling (e.g., fulvestrant). […] The proliferation of each cell line was evaluated in the presence of estradiol (1 nM) and varying concentrations of fulvestrant using a genomic DNA quantification assay (CyQuant). The Hill equation was then used to determine the IC50 of each cell line following fulvestrant treatment (FIG. 9A). […] Therefore, targeting AREG signaling may alleviate endocrine therapy resistance.

HCC70 spheroids [4] = assay: Confocal fluorescence microscopy of probe labeling in 3D spheroid culture with 2% EHS matrix; assay type: cell-based; details: azidohomoalanine 24 hours, probe 30 minutes at 37 degrees Celsius, streptavidin Alexa-Fluor 488
Method: To do this, 3D organotypic suspension cultures of the HCC70 breast cancer cell line were generated in the presence of EHS matrix. Next, spheroids were labeled with 500 pM azidohomoalanine for 24 hours, and after washing excess reagent, incubated the spheroids with each of the heterobifunctional probes (three hundred micromolar concentration, 30 minutes at 37 degrees Celsius). […] The samples were also counterstained with DAPI and Phalloidin to visualize the nuclei and the cell surface (F-actin in the HCC70 cells is subcortically localized near the membrane). Lastly, confocal fluorescence microscopy was used to qualitatively assess the spatial distribution of streptavidin labeling in all conditions (FIG. 2).
Azidohomoalanine labeling of 3D HCC70 cultures in 2% EHS matrix. 3D suspension cultures of HCC70 cells in 2% EHS matrix were generated from 2D monolayer culture (as described above), dissociated once, and then plated in fresh 2% EHS matrix. After 48 hours of culture, spheroids were washed three times to remove excess methionine by centrifuging at 200×g for 3 minutes, aspirating the supernatant and resuspending in PBS (with calcium and magnesium). Azidohomoalanine containing media was freshly prepared by diluting a 500 mM azidohomoalanine DMSO stock solution 1,000-fold in methionine reduced 2% EHS matrix suspension media. The washed spheroids were resuspended in azidohomoalanine-containing 2% EHS matrix suspension media (in the same volume as the original suspension), plated in 6-well ultra-low attachment plates, and incubated in TC incubator at 37° C., 5% CO2 for 24 hours.
Spheroids were cultured for 24 hours in the presence of azidohomoalanine to allow the azidohomoalanine to be incorporated into newly synthesized proteins at methionine residues. After 24 hours, spheroids were washed three times with PBS (containing calcium and magnesium) to remove unincorporated azidohomoalanine by centrifugation at 200×g for 1 minute, aspiration of the supernatant, and resuspension in the PBS wash buffer. […]

TAMR cells = assay: Click labeling and PEA (Olink Explore 3072) differential intercellular protein expression; assay type: cell-based; details: tamoxifen (100 nM) + estradiol versus estradiol, FDR<0.05, therapy resistant cells
Method: Three-dimensional cultures of MCF7:WS8 cells and TAMR cells were generated in 2% EHS matrix suspension. Spheroids were treated with either 1) estradiol (10 nM) or 2) estradiol (10 nM) and tamoxifen (100 nM). […] The eluted protein fraction was then subjected to proximity extension assay-based quantification using the Olink® Explore protocol to quantify the abundance of proteins in a 3072-plex panel.
First, a tamoxifen-induced protein signature was developed for each line by comparing how each cell line responded to tamoxifen treatment. Next, the log 2-fold change enrichment was quantified for cells treated with or without tamoxifen.
MCF7 cells were seeded, as described above, in estrogen-depleted 2% EHS matrix suspension culture (containing charcoal-stripped FBS and phenol red free) for 24 hours to create estrogen-starved spheroids. […]
Proteins were measured using the Olink® Explore 3072 panel (Olink Proteomics AB, Uppsala, Sweden) according to the manufacturer's instructions. […] Libraries were subjected to a bead-based purification and quality was assessed using an Agilent 2100 bioanalyzer (Agilent Technologies, Palo Alto, CA). […]

[5] = system: Laminin B1, Laminin C1, and Nidogen; assay: LC/MS label-free quantification of EHS matrix proteins in eluted fraction versus starting lysate; details: HCC70 spheroids, 2% EHS matrix, streptavidin enrichment and elution with free biotin
Method: Compositions of the EHS matrix vary from lot-to-lot, but three of the most abundant proteins EHS matrix preparations are known to be Laminin B1, Laminin C1, and Nidogen. LC/MS proteomics were performed on crude lysates prepared from organotypic cultures of HCC70 spheroids in 2% EHS matrix. As expected, the most abundant proteins in these crude lysates were the EHS matrix proteins, Laminin B1, Laminin Cl, and Nidogen (FIG. 5A). This was true regardless of whether the peptide search was performed against the human or mouse proteome, due to high sequence homology of these proteins between both species. […] Protein concentration of crude lysates was determined using a Pierce BCA assay kit (Thermo Fisher Scientific #23225) according to the manufacturer's protocol. […] Desalted samples were brought up in 2% acetonitrile in 0.1% formic acid and were analyzed by LC/ESI MS/MS with a Thermo Scientific Easy-nLC 1000 (Thermo Scientific, Waltham, MA) nano HPLC system coupled to a tribrid Orbitrap Fusion (Thermo Scientific, Waltham, MA) mass spectrometer. […] Label-free quantification data analysis of LC/MS samples. […] In the specific case in which the abundance of EHS matrix proteins was evaluated, a search was also performed against the Uniprot Mus musculus files (however, due to sequence homology the same conclusions were drawn regardless of whether the Mus musculus database was included in the search). […]

Claudin 7 = assay: Streptavidin bead capture, elution and Claudin 7 western blot; design: species or system human; details: HCC70 spheroids, mild competitive elution with free biotin versus denaturing elution
Method: After lysing the spheroids, biotinylated or desthiobiotinylated proteins were captured using streptavidin-functionalized magnetic polystyrene beads. The unbound fraction was also collected to evaluate the capture efficiency. […] This competitive elution was performed in two sequential incubations at 37° C. and 4° C. The recovery of Claudin 7 was used to evaluate the efficiency with which full-length intercellular proteins were released from the magnetic bead. Claudin 7 is a well-known tight-junction protein associated with intercellular adhesions (FIG. 4A), and it is localized to the pericellular zones in HCC70 spheroids (FIG. 4D). Next, western blots against Claudin 7 were performed in the eluted fraction from the streptavidin pull-down, and the signal intensity of Claudin 7 from the 15 μg of HCC70 spheroid starting lysate was evaluated. […] Streptavidin magnetic bead enrichment. […] For every 100 μL of sample, 200 μL of the 10 mg/mL magnetic bead suspension were used. […] Next a magnetic bead pellet was prepared by separating the beads on a magnetic stand and removing the supernatant. […] Western blot and dot blot quantification. Western blot quantification was performed using ImageJ. […] Integrated fluorescence intensity was calculated using the “Measure” tool, and the background-corrected integrated fluorescence intensity was computed for each band.

[6] = system: breast epithelial MCF10A cells; details: 2D culture, exogenous media supplement; cited from earlier work

Streptavidin, sequence (P22629 25-183, species assumed): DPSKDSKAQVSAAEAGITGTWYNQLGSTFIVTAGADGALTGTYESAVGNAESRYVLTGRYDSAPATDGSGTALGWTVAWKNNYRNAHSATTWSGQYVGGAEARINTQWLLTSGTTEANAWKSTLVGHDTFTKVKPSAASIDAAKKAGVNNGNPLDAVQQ

For `C[C@@H]1NC(=O)N[C@@H]1CCCCCC(=O)O` [Desthiobiotin], the Kd (Streptavidin) is given as 0.66 nM, the Koff (Streptavidin) is given as 0.018 s⁻¹ and the Kon (Streptavidin) is given as 2.7e7 1/M 1/s.

In the case of `Cc1nc(NC(=O)N2CCC[C@H]2C(N)=O)sc1-c1ccnc(C(C)(C)C(F)(F)F)c1` [alpelisib], the “effect of AREG overexpression on alpelisib response” value (MCF7:PIK3CA-WT cells) is reported as “no effect” and the “increase in IC50 by AREG overexpression” value (MCF7:PIK3CA-mutant cells) is reported as 4 fold.

For `[N-]=[N+]=NCC[C@H](N)C(=O)O` [azidohomoalanine], the “streptavidin binding versus non-labeled azidohomoalanine controls” value (HCC70 spheroids [1]; 2% EHS matrix suspension, DBCO-PEG4-Desthiobiotin labeling) was 10 fold.

With `C[C@]12CC[C@@H]3c4ccc(O)cc4CC[C@H]3[C@@H]1CC[C@@H]2O` [estradiol] the “number of proteins upregulated by at least 2-fold” value (MCF7:WS8 cells [2]; estradiol versus estrogen-deprived controls, FDR<0.05) was “at least 188 proteins”.

With `C[C@]12CC[C@@H]3c4ccc(O)cc4C[C@@H](CCCCCCCCC[S+]([O-])CCCC(F)(F)C(F)(F)F)[C@H]3[C@@H]1CC[C@@H]2O` (stereo partly drawn) [fulvestrant] the “most significantly upregulated intercellular protein” value (MCF7:WS8 cells [2]; estradiol (1 nM) + fulvestrant versus estradiol (1 nM) alone, FDR<0.05) was “ITGB6”, the IC50 (MCF7:WS8 cells [3]; MCF7:WS8, AREG overexpression line) was 255 nM and the IC50 (MCF7:WS8 cells [3]; MCF7:WS8, control line (ORF stuffer)) was 34 nM. The “increase in IC50, AREG overexpression versus control” value (MCF7:WS8 cells [3]) was 7.5 fold.

In the case of `O=C1N[C@H]2[C@H](CS[C@H]2CCCCC(=O)ON2C(=O)CC(S(=O)(=O)[O-])C2=O)N1.[Na+]` (stereo partly drawn) [sulfo-NHS-biotin], the “labeling of the pericellular zone / intercellular spaces” value (HCC70 spheroids [4]) is reported as “unable to diffuse into intercellular zones of the organoids” and the “streptavidin binding signal, hydrogels containing HCC70 cells versus cell-free EHS matrix” value (HCC70 spheroids [1]) is reported as “equal”.

In the case of `CC/C(=C(\c1ccccc1)c1ccc(OCCN(C)C)cc1)c1ccccc1` [tamoxifen], the “number of proteins upregulated at least 2-fold in response to tamoxifen” value (TAMR cells) is reported as “forty-three” and the “number of proteins upregulated at least 2-fold in response to tamoxifen” value (MCF7:WS8 cells [2]; tamoxifen (100 nM) + estradiol versus estradiol, FDR<0.05, therapy sensitive cells) is reported as “Thirty”.

For DBCO-PEG4-Desthiobiotin, the “lower normalized abundance of Laminin B1, Laminin C1 and Nidogen versus starting lysates” value [5] was “over 10 fold”, the “labeling of the pericellular zone / intercellular spaces” value (HCC70 spheroids [4]) was “exhibited pericellular labeling” and the “recovery of Claudin 7 compared to the DBCO-sulfo-biotin samples” value (Claudin 7) was 10 fold. For the same molecule, the “streptavidin binding signal, hydrogels containing HCC70 cells versus cell-free EHS matrix” value (HCC70 spheroids [1]) was 10 fold.

For DBCO-sulfo-Biotin, the “labeling of the pericellular zone / intercellular spaces” value (HCC70 spheroids [4]) was “exhibited pericellular labeling”.

B1: recombinant amphiregulin: recombinant amphiregulin (AREG), EGF receptor family ligand (protein, UniProt P15514 101-187, looked up)
Amphiregulin: SVRVEQVVKPPQNKTESENTSDKPKRKKKGGKNGKNRRNRKKKNPCNAEFQNFCIHGECKYIEHLEAVTCKCQQEYFGERCGEKSMK
modifications: Amphiregulin
notes: recombinant amphiregulin (AREG), EGF receptor family ligand
For B1, the “concentrations at which activity is exhibited” value [6] is given as 5 to 50 ng/mL.
